Laboratory results as given in patent US5523406A, “2-substituted tertiary carbinol derivatives of 1,5-iminosugars” (G. D. Searle & Co., priority 1994, dated 1996).
Values after ≈ are worked out from the molar mass of the structure shown. Read-outs that look alike come from different tables or passages of the source.

How the values were obtained:
HIV-1, strain HTVL-IIIB = experiment: Inhibition of HIV-1 cytopathogenic effect in Leu-3a-positive CEM cells, MTT endpoint (Method B); assay type: cell-based; settings: Human immunodeficiency virus 1, IIIB, CCRF-CEM, 216 h, read-out: ID50 (the source's name)
Description: (§1) These tests involved plating of susceptible human host cells which are syncytium-sensitive with and without virus in microculture plates, adding various concentrations of the test compound, incubating the plates for 9 days (during which time infected, non-drug treated control cells are largely or totally destroyed by the virus), and then determining the number of remaining viable cells using a colorimetric endpoint.
Various illustrative compounds synthesized above were tested for inhibition of visna virus in vitro in a plaque reduction assay (Method A) or for inhibition of HIV-1 in a test which measured reduction of cytopathogenic effect in virus-infected synctium-sensitive Leu-3a-positive CEM cells grown in tissue culture (Method B) as follows:
(§2) Tissue culture plates were incubated at 37° C. in a humidified, 5% CO2 atmosphere and observed microscopically for toxicity and/or cytopathogenic effect (CPE). At 1 hour prior to infection, each test article was prepared from the frozen stock, and a 20 μl volume of each dilution (prepared as a 10× concentration) was added to the appropriate wells of both infected and uninfected cells.
(§3) On the 9th day post-infection, the cells in each well were resuspended and a 100 μl sample of each cell suspension was removed for use in an MTT assay. A 20 μl volume of a 5 mg/ml solution of 3-(4,5-dimethylthiazol-2-yl)-2,5-diphenyltetrazolium bromide (MTT) was added to each 100 μl cell suspension, and the cells were incubated at 37° C. in 5% CO2 for 4 hours. […] A 100 μl volume of a solution of 10% sodium dodecyl sulfate in 0.01N hydrochloric acid was added to each sample, and the samples were incubated overnight. The absorbance at 590 nm was determined for each sample using a Molecular Devices Vmax microplate reader. This assay detects drug-induced suppression of viral CPE, as well as drug cytotoxicity, by measuring the generation of MTT-formazan by surviving cells.
(§4) Assays were done in 96-well tissue culture plates. CEM cells were treated with polybrene at a concentration of 2 μg/ml, and an 80 μl volume of cells (1×10^4 cells) was dispensed into each well. A 100 μl volume of each test article dilution (prepared as a 2 ×concentration) was added to 5 wells of cells, and the cells were incubated at 37° C. for 1 hour. A frozen culture of HIV-1, strain HTVL-IIIB, was diluted in culture medium to a concentration of 5×10^4 TCID50 per ml, and a 20 μl volume (containing 10^3 TCID50 of virus) was added to 3 of the wells for each test article concentration. […] A 20 μl volume of normal culture medium was added to the remaining wells to allow evaluation of cytotoxicity. Each plate contained 6 wells of untreated, uninfected, cell control samples and 6 wells of untreated, infected, virus control samples.

in vitro = assay type: cell-based; settings: human, cem cells
Description: as §1, §2, §3, §4

[1] = Table I, Anti HIV Activity, CEM cells, 9 days

IC50 (HIV-1, strain HTVL-IIIB; Example 38, inhibition of HIV) [µg/mL]	IC50 (HIV-1, strain HTVL-IIIB; [1]) [µg/mL]	SMILES	cytotoxicity at 216 h (in vitro) [%]	CC50 at 216 h (in vitro) [µg/mL]
513 (≈ 1930 µM)	–	C[C@]1(O)CN[C@@H]2CO[C@@H](c3ccccc3)O[C@H]2[C@@H]1O [XIV, 1,5-dideoxy-1,5-imino-2-C-methyl-4,6-O-(R-phenylmethylene)TD-glucitol]	–	–
–	237 (≈ 1020 µM)	CCCCN1C[C@](C)(O)[C@@H](O)[C@H](O)[C@H]1CO [XVIA, 1,5-Butylimino-1,5-dideoxy-2-C-methyl-D-glucitol]	20	–
–	492 (≈ 1670 µM)	CC1(O)CN(CCCc2ccccc2)C(CO)C(O)C1O [XVIB, 1,5-(3-phenylpropylimino)-1,5-dideoxy-2-C-methyl-D-glucitol]	40	–
–	6 (≈ 23 µM)	CCC(CC)CN1C[C@](C)(O)[C@@H](O)[C@H](O)[C@H]1CO [XVIC, 1,5-(2-ethylbutylimino) -1,5-dideoxy-2-C-methyl-D-glucitol]	–	349 (≈ 1340 µM)
–	34 (≈ 155 µM)	CCCCN1C[C@H](O)[C@@H](O)[C@H](O)[C@H]1CO [n-Bu, N-butyl DNJ, reference compound]	–	> 500
